Literature values, collected in patent US20090131263A1, “Normalization methods for G-protein coupled receptor membrane array” (priority 2007, published 2009).
pKd: −log10 of the molar value.

Columns and labels:
Gs = Gs (Homo sapiens, UniProt P63092); conditions: unactivated form of G protein Gs, reconstituted vesicle systems
Go = Go (Homo sapiens, UniProt P09471); conditions: unactivated form of G protein Go, reconstituted vesicle systems
Gi1 = Gi1 (Homo sapiens, UniProt P63096); conditions: unactivated form of G protein Gi1, reconstituted vesicle systems
Gi2 = Gi2 (Homo sapiens, UniProt P04899); conditions: unactivated form of G protein Gi2, reconstituted vesicle systems
Chain of Gi2 (P04899 whole entry): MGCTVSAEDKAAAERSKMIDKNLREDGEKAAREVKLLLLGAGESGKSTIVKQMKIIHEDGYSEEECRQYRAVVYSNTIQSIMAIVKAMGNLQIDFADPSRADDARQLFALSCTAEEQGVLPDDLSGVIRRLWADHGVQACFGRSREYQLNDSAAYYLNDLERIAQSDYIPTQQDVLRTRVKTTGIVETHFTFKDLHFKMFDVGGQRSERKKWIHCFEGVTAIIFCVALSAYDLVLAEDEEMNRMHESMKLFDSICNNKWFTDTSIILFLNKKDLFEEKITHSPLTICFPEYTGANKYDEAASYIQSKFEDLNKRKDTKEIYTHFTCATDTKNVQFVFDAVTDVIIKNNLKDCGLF

Chain of Gi1 (P63096 whole entry): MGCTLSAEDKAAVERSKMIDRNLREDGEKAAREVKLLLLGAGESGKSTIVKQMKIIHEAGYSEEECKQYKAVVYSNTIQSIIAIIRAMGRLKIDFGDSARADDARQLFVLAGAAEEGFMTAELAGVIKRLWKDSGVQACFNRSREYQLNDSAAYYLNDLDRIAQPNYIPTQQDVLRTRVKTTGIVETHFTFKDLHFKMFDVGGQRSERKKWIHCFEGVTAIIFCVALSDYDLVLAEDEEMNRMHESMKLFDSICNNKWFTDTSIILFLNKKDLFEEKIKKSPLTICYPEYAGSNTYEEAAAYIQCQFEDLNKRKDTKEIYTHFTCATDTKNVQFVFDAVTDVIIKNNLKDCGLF
Chain of Go (P09471 whole entry): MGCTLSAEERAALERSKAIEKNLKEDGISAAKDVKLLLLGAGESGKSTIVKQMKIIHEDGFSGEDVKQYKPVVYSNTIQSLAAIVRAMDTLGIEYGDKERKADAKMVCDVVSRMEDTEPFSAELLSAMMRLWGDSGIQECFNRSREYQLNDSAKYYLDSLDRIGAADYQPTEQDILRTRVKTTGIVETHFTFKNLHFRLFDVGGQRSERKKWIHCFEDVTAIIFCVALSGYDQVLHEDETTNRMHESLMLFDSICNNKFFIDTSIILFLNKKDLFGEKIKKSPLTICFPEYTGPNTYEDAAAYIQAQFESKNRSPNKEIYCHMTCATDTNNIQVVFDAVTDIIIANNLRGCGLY
Chain of Gs (P63092 whole entry): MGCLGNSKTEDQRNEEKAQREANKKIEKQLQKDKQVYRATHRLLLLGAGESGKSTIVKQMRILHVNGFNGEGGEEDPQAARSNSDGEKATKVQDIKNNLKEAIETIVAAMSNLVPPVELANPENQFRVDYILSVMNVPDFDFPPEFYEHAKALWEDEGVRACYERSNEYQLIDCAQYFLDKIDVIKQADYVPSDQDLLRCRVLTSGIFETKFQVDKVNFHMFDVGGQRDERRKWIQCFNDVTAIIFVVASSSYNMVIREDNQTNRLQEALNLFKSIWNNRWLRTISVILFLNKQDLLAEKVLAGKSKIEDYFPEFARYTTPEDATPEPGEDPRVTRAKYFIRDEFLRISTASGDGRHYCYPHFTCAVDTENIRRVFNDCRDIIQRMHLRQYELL

## BODIPY-FL-GTPγS
Gs
  pKd: 7.15
Go
  pKd: 8.22
Gi1
  pKd: 6.82
Gi2
  pKd: 6.52
